Reference: publication PMC8325347, “Evolution of a σ–(c-di-GMP)–anti-σ switch” (Proceedings of the National Academy of Sciences of the …, 2021)

What was measured:
[1] = target: RsiG from Rubrobacter radiotolerans (RsiGRr), co-purified with WhiGRr, His-tag cleaved (Rubrobacter radiotolerans); test: crystal structure; Rr (RsiG)2-(c-di-GMP)2-WhiG complex, 2.93 Å; 0.1 M Tris pH 8.0, 0.2 M MgCl2, 23% PEG 3350; c-di-GMP copurified from E. coli, none added
[2] = target: T1, RsiGCw (Conexibacter woesei, UniProt D3EZE5); test: fluorescence polarization; type: binding; conditions: 25 mM Tris-HCl pH 7.5, 150 mM NaCl, 25 °C, 1 nM probe; RsiG alone; labelled compound
T1 construct: gene Cwoe_3492; full-length single-motif RsiG; pET15b, E. coli C41(DE3), His-tag cut with thrombin; homodimer (two-hybrid)
T1 sequence (D3EZE5 1-84): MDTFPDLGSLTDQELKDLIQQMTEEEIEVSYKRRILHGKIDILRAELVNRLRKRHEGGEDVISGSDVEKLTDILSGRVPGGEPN

[3] = target: T2, RsiGCw+WhiGCw (Conexibacter woesei, UniProt D3EZE5); test: fluorescence polarization; type: binding; conditions: 25 mM Tris-HCl pH 7.5, 150 mM NaCl, 25 °C, 1 nM probe; RsiG with WhiG; labelled compound
T2 construct: gene Cwoe_3492; RsiG and WhiG coexpressed from pCOLADuet-1 in E. coli C41(DE3), His-tag on RsiG cut with thrombin; stoichiometry by analogy with the R. radiotolerans complex
T2 sequence (D3EZE5 1-84): T1 sequence (D3EZE5 1-84)
T2 sequence (UPI0011D1D740 1-268 partner): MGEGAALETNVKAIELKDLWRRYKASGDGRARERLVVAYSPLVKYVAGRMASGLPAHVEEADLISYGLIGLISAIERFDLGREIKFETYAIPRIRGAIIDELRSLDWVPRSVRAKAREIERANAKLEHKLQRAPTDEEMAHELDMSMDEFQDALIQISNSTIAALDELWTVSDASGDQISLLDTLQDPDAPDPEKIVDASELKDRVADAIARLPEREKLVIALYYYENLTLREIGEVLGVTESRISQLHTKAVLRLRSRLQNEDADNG

[4] = target: T3, RsiGRr+WhiGRr; Rr (RsiG)2–(c-di-GMP)2–WhiG complex (Rubrobacter radiotolerans, UniProt A0A023X3C8+Z9BF25KB68); test: fluorescence polarization; type: binding; conditions: 25 mM Tris-HCl pH 7.5, 150 mM NaCl, 25 °C, 1 nM probe; RsiG with WhiG; labelled compound
T3 construct: RsiG and WhiG coexpressed from pCOLADuet-1 in E. coli C41(DE3), His-tag on RsiG cut with thrombin; complex of RsiG homodimer and one WhiG
T3 sequence (Z9BF25KB68 1-118): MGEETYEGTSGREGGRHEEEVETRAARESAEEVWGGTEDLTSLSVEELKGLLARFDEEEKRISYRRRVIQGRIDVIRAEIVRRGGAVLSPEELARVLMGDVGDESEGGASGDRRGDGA
T3 sequence (A0A023X3C8 1-273): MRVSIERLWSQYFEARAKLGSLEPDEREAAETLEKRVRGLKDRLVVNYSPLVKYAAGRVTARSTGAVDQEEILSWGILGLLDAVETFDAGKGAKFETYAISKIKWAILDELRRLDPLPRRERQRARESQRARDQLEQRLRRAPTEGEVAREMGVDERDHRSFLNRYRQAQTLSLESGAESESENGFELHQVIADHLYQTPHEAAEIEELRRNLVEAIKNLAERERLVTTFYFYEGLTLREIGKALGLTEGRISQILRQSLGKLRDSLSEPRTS

[5] = target: T4, RsiGRr (Rubrobacter radiotolerans, UniProt Z9BF25KB68); test: fluorescence polarization; type: binding; conditions: 25 mM Tris-HCl pH 7.5, 150 mM NaCl, 25 °C, 1 nM probe; RsiG alone; labelled compound
T4 construct: full-length single-motif RsiG, 118 residues (a 27-106 construct was made for apo crystals only); pET15b, E. coli C41(DE3), His-tag cut with thrombin; homodimer
T4 sequence (Z9BF25KB68 1-118): T3 sequence (Z9BF25KB68 1-118)

[6] = target: RsiGRr(27-106) (L52M-I69M), selenomethionine substituted (Rubrobacter radiotolerans); test: crystal structure; apo RsiGRr crystal form 1; 0.1 M imidazole pH 8.0, 12% isopropyl alcohol, 0.1 M MgCl2; selenomethionine SAD, 1.86 Å; six molecules in the ASU forming three dimers
[7] = target: RsiGRr(27-106) (Rubrobacter radiotolerans); test: crystal structure; apo RsiGRr crystal form 2; 0.1 sodium acetate pH 4.5, 2.5 M NaCl, 0.2 M lithium sulfate, 0.1 M MgCl2; molecular replacement, 2.55 Å

RsiG from Rubrobacter radiotolerans (RsiGRr), co-purified with WhiGRr, His-tag cleaved (natural protein)
stoichiometry N [1]: 2

2′-O-(6-[Fluoresceinyl]aminohexylcarbamoyl)-cyclic diguanosine monophosphate [2′-Fluo-AHC–c-di-GMP]
Kd [2]: 25 ± 2 µM | Kd [3]: 1.7 ± 0.3 µM | Kd [4]: 0.9 ± 0.05 µM | Kd [5]: 12 ± 3 µM

RsiGRr(27-106) (L52M-I69M), selenomethionine substituted (domain or fragment)
stoichiometry N [6]: 2

RsiGRr(27-106) (domain or fragment)
stoichiometry N [7]: 2
